Source: patent publication US12565515B2, “1,2,4-oxadiazole compounds as inhibitors of CD47 signalling pathways” (AURIGENE ONCOLOGY LIMITED, priority 2018, dated 2026)

What was measured:
[1] = system: luciferase expressing Raji cells; experiment: Luciferase based phagocytosis assay; type: cell-based; details: human monocyte-derived macrophages, luminescence, read-out: % normalized phagocytosis (at 10 μM)
Experimental: (§1) DPBS (Gibco), RPMI 1640 WITH HEPES AND L-GLN-500 ML (Lonza), Recombinant Human M-CSF (R& D systems), CD47 Monoclonal Antibody (B6H12), Functional Grade antibody (Ebioscience), Mouse IgG1 kappa Isotype Control, Functional Grade (Ebioscience), Vacutainer (multiple sample luer adapter) (BD), Vacutainer (sodium heparin (NH) 158USP units, Blood collection tubes (BD), Histopaque (density—1.077 gm/ml) (SIGMA 1077), Trypan Blue solution (SIGMA-T8154), Hemacytometer (Bright line-SIGMA Z359629), Scalp vein infusion set (JMS), Cell Dissociation buffer (Gibco), 48-well sterile flat bottom plates (Corning), Luciferase expressing Raji cells (Generated in house by trasfection of luciferase gene in Raji cells) Luminometer, Hygromycin B (Invitrogen), Bright Glo luciferase assay system (Promega), 96 well plate, polystyrene, high band, white flat bottom wells (Sigma CLS3912), APC anti-mouse/human CD11b Antibody (Biolegend), H929 cells, CFSE (Ebioscience), Fetal Bovine Serum (Gibco Cat #: 10437028), Round-Bottom FACs Tubes (BD), Flowcytometer BD FACS Verse, 96 well plates, ultra-low attachment (Corning).
In vitro phagocytosis assay was performed to evaluate the ability of test item to enhance the phagocytic activity of macrophages. Monocytes were isolated from blood of healthy donor and cultured for 6-8 days using 10% RPMI (Roswell Park Memorial Institute) media and recombinant human M-CSF to differentiate into macrophages. Media was changed every alternate day. After differentiation, adherent macrophages were collected by gentle scraping and cultured in 10% RPMI overnight at a density of 0.1 million per well in 48 well tissue culture plate. Simultaneously, luciferase expressing Raji cells were cultured in 10% RPMI media with 100 μg/mL of hygromycin B in tissue culture flask. On the day of phagocytosis, macrophages were serum starved for 2 hours. 0.4 million luciferase expressing Raji cells per well were incubated with anti human CD47 purified B6H12 or Mouse IgG1 K Isotype Control antibody or various concentrations of test item in serum free media for 30 min at 37° C. and added into respective well of the 48 well plate seeded with macrophages. After 2 hours, cells were washed twice with PBS and 100 μL of serum free RPMI was added to each well. Additionally, 50 μL Bright Glow reagent was added to each well followed by mixing of cells and incubated for 5 min in dark. Luminescence reading was taken using plate reader after transferring the content of each well to white plate. Intensity of luminescence indicated the extent of phagocytosis. Each experimental condition was carried out in duplicate.

[2] = system: A20 syngeneic lymphoma; experiment: Efficacy in A20 syngeneic lymphoma model; type: in vivo; details: for TGI (%): per orally
Description: Female Balb/c (BALB/cAnNTac) mice (6-8 weeks-old) bred in-house were used in this efficacy study in the A20 syngeneic lymphoma model. Animals were marked individually with tail marks and kept in cages that were identified by a cage card showing the study code, date of experimentation, sex and number of animals. During the experiment, the animals were weighed daily. A20 cell line (B-cell lymphoma line derived from a spontaneous reticulum cell neoplasm found in an old BALB/cAnN mouse) was procured from ATCC. When the mean tumor volumes reached approximately 75 mm^3, the animals were randomized based on tumour volumes into four groups of twelve animals in each group. Following randomization into various treatment groups, dosing with vehicle and Compound 6 was initiated. All treatments were administered per orally at a twice daily dosing frequency using a dose of 3 mg/kg, 10 mg/Kg and 30 mg/Kg. The treatment was continued for a period of 21 days after which the overall efficacy and tolerability were evaluated based on tumor volume and body weight changes observed during the treatment period. On treatment day 21, animals from all the treatment groups were sacrificed in sequential order at 1 hour after last dose administration.
Individual animal body weights were recorded daily before the administration of test item throughout the experimental period. […] The tumor volumes were measured in all treatment group animals thrice a week (once every 2-3 days) using a digital Vernier callipers. From an ethical viewpoint, any treatment/control group with a mean tumor weight in excess of 10% of animal body weight were humanely sacrificed. As a measure of efficacy, the % T (treatment)/C(control) and % TGI (% Tumor growth inhibition) values were calculated. Graphs and statistical analysis were performed using GraphPad Prism®, Version 7.0. For analysis of tumor volume data, statistical comparison was done on Day 21 for all groups using One-way ANOVA with Dunnett's multiple comparison test. All analyses and comparisons was evaluated at the 5% (p<0.05) level. A “p” value less than 0.05 was considered as significant.

[3] = system: H929 cells; experiment: FACS based phagocytosis assay; type: cell-based; details: NCI-H929, human macrophages, CFSE stained H929 cells, flow cytometry, normalized to positive control B6H12
Experimental: as §1
Monocytes were isolated from blood of healthy donor and cultured for 6-8 days using 10% RPMI (Roswell Park Memorial Institute) media and recombinant human M-CSF to differentiate into macrophages. Media was changed every alternate day. Simultaneously, H929 cells were cultured in 10% RPMI media with 50 μg/mL of betamercaptoethanol in tissue culture flask. On the day of phagocytosis adherent macrophages were serum starved for 2 hours in RPMI media. Simultaneously H929 cells were stained with 0.3 μM CFSE stain. After washing, 0.2 million CFSE stained H929 cells were incubated with anti-human CD47 or Mouse IgG1 K Isotype Control antibody or various conc of test item in serum free media for 30 min at 37° C. After 2 hours of serum starvation macrophages were dissociated with cell dissociation buffer and collected by gentle scraping and added at conc of 0.05 million per well into respective wells of the ultra-low attachment 96 well plate seeded with H929 cells. Phagocytosis was allowed for 2 hours. After 2 hours, cells were washed with PBS and stained with 1 μL of anti-human CD11b-APC antibody prepared in 100 μL of PBS for 30 min in 4° C. in dark. Cells were further washed and fixed in 100 μL of fixation buffer until acquired by Flow cytometry. The extent of phagocytosis of H929 cells by human macrophages was measured by acquiring the samples by Flow cytometry. Samples acquired by Flow cytometry were analysed by using FlowJo software. Each experimental condition was carried out in duplicate. Cells positive for FITC (CFSE) and CD11b-APC were considered as phagocytosed macrophages. Raw data of % phagocytosis by macrophages were obtained in the form of excel sheet from FlowJo. % phagocytosis from isotype control (background phagocytosis) was subtracted from % phagocytosis of macrophages treated with compound as well as other controls to get corrected phagocytosis values. Corrected phagocytosis values of compound treated samples were normalized with phagocytosis of positive control (B6H12) using the formula: % normalized phagocytosis=[(corrected % phagocytosis of compound)/(corrected phagocytosis of B6H12)*100]

Question: For `NC(=O)CC[C@H](N)c1noc(CNC(=O)N2CCCC2C(=O)O)n1` (stereo partly shown) [Compound 6], which activation at 10 µM [1] is on record?
Answer: The activation at 10 µM was 66%.

Question: What about the “TGI (%)” value ([2]; 3 mg/kg (bid), 21 days, Balb/c mice) of the same compound?
Answer: Its value is 53%.

Question: And the “TGI (%)” value ([2]; 10 mg/kg (bid), 21 days, Balb/c mice)?
Answer: The value was 64%.

Question: And the “TGI (%)” value ([2]; 30 mg/kg (bid), 21 days, Balb/c mice)?
Answer: The value was 67%.

Question: And the “tolerability (body weight, clinical signs of toxicity)” value ([2]; 3, 10 and 30 mg/kg bid per orally, 21 days, Balb/c mice)?
Answer: The value was “well tolerated without any signs of body weight loss and/or clinical signs of toxicity”.

Question: And the “antitumor efficacy, significance of tumor growth inhibition” value ([2]; all the tested dose levels (3, 10, 30 mg/kg bid), Day 21, one-way ANOVA)?
Answer: The value was “statistically significant tumor growth inhibition (TGI) at all the tested dose levels”.

Question: And the activation at 10 µM [3]?
Answer: Its activation at 10 µM is 74%.
